Experimental data: article PMC3125149, “SCYX-7158, an Orally-Active Benzoxaborole for the Treatment of Stage 2 Human African Trypanosomiasis” (PLoS Neglected Tropical Diseases, 2011)
Read-outs that look alike come from different tables or passages of the source.

Legend:
[1] = Pharmacokinetics in uninfected mice; format: in vivo, mouse; conditions: for Kp: read-out: brain to plasma ratio based on AUC0–24 h; for AUC(0-t): read-out: AUC0–24 h
Experimental: The blood distribution, CNS disposition and pharmacokinetics of SCYX-7158 were evaluated in infected or non-infected rodents following intravenous or oral administration of compounds. Pharmacokinetics and bioavailability of SCYX-7158 were also evaluated in non-infected beagle dogs and cynomolgus monkeys. In-life phases of non-infected rodent studies were performed at Vivisource (Waltham, MA); studies in non-naïve cynomolgus monkeys were performed by SNBL USA (Everett, WA). Male CD-1 mice (∼25 g), male Sprague-Dawley rats (∼225 g), or male cynomolgus monkeys (∼3–5 kg) were administered test article by either bolus intravenous injection (IV) or oral gavage. Animals in the IV groups received a single 2 mg/kg IV dose. Animals received oral doses of test articles as either single or twice daily doses ranging from 8 mg/kg to 50 mg/kg. All doses were administered as clear colorless solutions in either 50% (v/v) PEG 400: 20% (v/v) ethanol: 30% (v/v) carboxymethylcellulose (0.5% w/v in sterile water for injection) or 2% (v/v) ethanol: 5% (w/v) dextrose in sterile water for injection. […] For pharmacokinetic analysis, blood samples were collected from mice via cardiac puncture under terminal anaesthesia. Serial blood samples were collected from rats via a vascular access port located in the lateral saphenous vein. Mice and rats were euthanized in a CO2 chamber before collection of terminal blood samples or brain tissue. Blood samples were collected into polypropylene tubes containing K2EDTA anticoagulant and stored on ice until centrifuged for the preparation of plasma. Plasma was stored at −70°C. Whole brains were collected following decapitation, blotted dry, placed into polypropylene containers and then immediately frozen at approximately −70°C. CSF was collected from rats via cisterna magna puncture, placed in sterile polypropylene tubes, and stored at approximately −70°C. […] Treated samples were gently mixed at room temperature for 10 min, and then centrifuged at approximately 3000×g for 15 min at 15°C. The supernatants were transferred to 96-well plates or HPLC vials for analysis by LC-MS/MS. Pharmacokinetic parameters were calculated from composite mean plasma or tissue data using non-compartmental (oral and intravenous routes) and bi-exponential (intravenous route) analyses in Microsoft Excel.

[2] = molecular target: T1, MDCKII-hMDR1 cells (P-glycoprotein) (Homo sapiens, UniProt P08183); test: MDCKII-hMDR1 monolayer permeability and P-gp efflux; format: in vitro ADME
T1 construct: expressed in transfected cells; host or cells: MDCKII (canine kidney) cells, provided by P. Borst
T1 sequence (P08183 whole entry): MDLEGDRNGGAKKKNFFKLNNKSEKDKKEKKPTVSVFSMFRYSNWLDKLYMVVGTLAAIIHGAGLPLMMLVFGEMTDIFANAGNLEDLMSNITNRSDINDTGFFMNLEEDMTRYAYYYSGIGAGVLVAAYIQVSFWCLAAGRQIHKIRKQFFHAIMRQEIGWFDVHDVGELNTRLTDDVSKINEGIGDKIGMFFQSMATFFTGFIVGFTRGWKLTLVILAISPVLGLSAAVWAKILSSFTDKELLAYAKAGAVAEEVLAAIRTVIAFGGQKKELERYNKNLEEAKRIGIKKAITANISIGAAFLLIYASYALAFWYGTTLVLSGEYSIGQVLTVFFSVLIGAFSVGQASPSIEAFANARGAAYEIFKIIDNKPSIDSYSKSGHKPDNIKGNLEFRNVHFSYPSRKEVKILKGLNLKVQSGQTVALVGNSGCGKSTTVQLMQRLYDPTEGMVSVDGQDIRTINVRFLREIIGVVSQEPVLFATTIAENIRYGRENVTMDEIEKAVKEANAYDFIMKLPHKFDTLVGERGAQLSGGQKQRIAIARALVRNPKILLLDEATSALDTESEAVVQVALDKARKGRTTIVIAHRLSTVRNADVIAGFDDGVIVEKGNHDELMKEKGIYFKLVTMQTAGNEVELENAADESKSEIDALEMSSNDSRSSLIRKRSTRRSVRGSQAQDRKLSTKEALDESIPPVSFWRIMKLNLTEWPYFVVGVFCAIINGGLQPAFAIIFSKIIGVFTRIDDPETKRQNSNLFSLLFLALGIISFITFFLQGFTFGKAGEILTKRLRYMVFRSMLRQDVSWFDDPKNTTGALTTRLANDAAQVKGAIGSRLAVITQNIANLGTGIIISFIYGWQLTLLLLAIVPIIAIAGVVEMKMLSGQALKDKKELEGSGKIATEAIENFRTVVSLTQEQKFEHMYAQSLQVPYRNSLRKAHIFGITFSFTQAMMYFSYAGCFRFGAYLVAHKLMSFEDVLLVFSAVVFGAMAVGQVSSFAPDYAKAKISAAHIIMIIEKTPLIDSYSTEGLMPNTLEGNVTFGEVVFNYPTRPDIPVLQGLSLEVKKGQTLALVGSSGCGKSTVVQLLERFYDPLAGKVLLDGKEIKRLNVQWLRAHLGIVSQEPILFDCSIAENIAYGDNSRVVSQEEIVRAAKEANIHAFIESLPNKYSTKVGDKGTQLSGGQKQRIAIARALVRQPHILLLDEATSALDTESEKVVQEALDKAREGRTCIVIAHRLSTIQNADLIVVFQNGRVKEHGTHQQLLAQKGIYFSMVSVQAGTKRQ
Experimental: (§1) T. b. brucei was cultured in complete HMI-9 medium,[20] which contains 10% fetal bovine serum (FBS) (Invitrogen, Carlsbad, CA), 10% Serum Plus medium (SAFC Biosciences, Lenexa, KS), and 100 units/mL penicillin and 0.1 mg/mL streptomycin. The trypanosomes were propagated in T-25 vented cap flasks (Corning Inc., Lowell, MA) at 37°C and 5% CO2 with humidity. To ensure log growth phase, trypanosomes were sub-cultured at appropriate dilutions (typically 1∶100) every 2–3 days in fresh HMI-9 medium. T. b. rhodesiense parasites were grown in MEM medium with Earle's salts supplemented with 15% horse serum. For T. b. gambiense, the MEM medium was supplemented with 5% heat-inactivated fetal calf serum (FCS) and 15% human serum.[21] L929 mouse fibroblast cells (ATCC CCL1, American Type Culture Collection, Rockville, MD) were used to determine parasite versus mammalian cell selectivity. Cells were cultured in Dulbecco's Modified Eagle Medium (DMEM), supplemented with 10% FBS, L-glutamine and 100 units/mL penicillin and 0.1 mg/mL streptomycin. MDCKII-hMDR1 cells were generously provided by P. Borst at the Netherlands Kancer Institute. Cells were cultured in DMEM with Glutamax, 10% (v/v) FBS, and 100 units/mL penicillin and 0.1 mg/mL streptomycin. Cell monolayers were fed with cell culture media 24 h after seeding and used for permeability studies 3 days later.
(§2) The propensity of the compound to cross the blood-brain barrier was examined using an in vitro MDCKII-hMDR1 transwell assay.[24] MDCKII-hMDR1 cells were seeded at density of 3×10^5 cells per well onto microporous polycarbonate membranes in 12 well Costar Transwell plates (Corning Inc., Lowell, MA). The cells were used for permeability studies 3 days later. Trans-epithelial resistance (TEER) was measured for each insert to ensure the integrity of the monolayer (acceptable TEER >50 Ωcm^2).
(§3) The permeability and propensity for P-gp-mediated efflux was evaluated by adding each compound at a concentration of 3 µM, in the presence or absence of 2 µM GF120918, to the apical compartment. Competency of the P-gp efflux transporter was confirmed by assay of propranolol (non-substrate) and amprenavir (substrate). Cell monolayers were incubated in triplicate with shaking (160 rpm) at 37°C in a 5% CO2-enriched humidified atmosphere for 1 h. Samples were removed from the apical and basolateral compartments after incubation and assayed for test compound concentrations by LC-MS/MS. Values for mass balance, PappA→B, PappA→B+GF918, and absorption quotient (AQ) were calculated for each compound.[25], [26], [27] Acceptance criterion for mass balance was 70–120%.

[3] = molecular target: T2, P-glycoprotein (human MDR1) (Homo sapiens, UniProt P08183); test: as above; format: in vitro ADME; conditions: dog
T2 construct: expressed in transfected cells; host or cells: MDCKII (canine kidney) cells, provided by P. Borst
T2 sequence (P08183 whole entry): as above
Experimental: as §1, §2, §3

In the case of `CC1(C)OB(O)c2cc(NC(=O)c3ccc(F)cc3C(F)(F)F)ccc21` [SCYX-7158], the “brain AUC0–24 h” value ([1]; 13.4 mg/kg oral, brain) is reported as 31400 ng·h/mL, the “time of Cmax” value ([1]; 13.4 mg/kg oral, plasma) is reported as 6 h and the “brain AUC0–24 h” value ([1]; 26 mg/kg oral, brain) is reported as 68000 ng·h/mL. For the same compound, the Kp ([1]; male, CD-1, mouse, brain and plasma, 13.4 mg/kg oral) was 0.38, the Kp ([1]; male, CD-1, mouse, brain/plasma, 26 mg/kg oral) was 0.6 and the bioavailability ([1]; male, CD-1, mouse, plasma, 13.4 mg/kg oral, read-out: absolute oral bioavailability) was 55%. The CL/F ([1]; male, CD-1, mouse, plasma, 13.4 mg/kg oral, read-out: oral clearance (Cl/F) (converted)) was 2.72 mL/min/kg, the AUC(0-t) ([1]; male, CD-1, mouse, 4.3 mg/kg intravenous, plasma) was 48000 ng·h/mL and the half-life ([1]; male, CD-1, mouse, 4.3 mg/kg intravenous, plasma, read-out: apparent elimination half-life (t1/2) (converted)) was 26.6 h. The Cmax ([1]; male, CD-1, mouse, 13.4 mg/kg oral, brain, read-out: Cmax in brain tissue) was 4620 ng/mL, the AUC(0-t) ([1]; male, CD-1, mouse, 13.4 mg/kg oral, plasma) was 82000 ng·h/mL and the Cmax ([1]; male, CD-1, mouse, 13.4 mg/kg oral, plasma, read-out: Cmax) was 6960 ng/mL. For the same compound, the Cmax ([1]; male, CD-1, mouse, 26 mg/kg oral, brain, read-out: Cmax in brain tissue) was 8100 ng/mL, the AUC(0-t) ([1]; male, CD-1, mouse, 26 mg/kg oral, plasma) was 113000 ng·h/mL and the Cmax ([1]; male, CD-1, mouse, 26 mg/kg oral, plasma, read-out: Cmax) was 9800 ng/mL. The “AQ (absorption quotient)” value ([2]; calculated from Papp with and without GF120918) was 0.09, the P-gp substrate status ([2]; from AQ) was “not a P-gp substrate” and the Papp A→B at 1 h, 3 µM ([3]; MDCK-MDR1, with GF120918 2 µM, in presence of P-gp inhibitor GF120918 (2 µM), read-out: Papp A→B + GF120918) was 85.3 ×10⁻⁶ cm/s. It also gave a Papp A→B at 1 h, 3 µM ([3]; MDCK-MDR1, apical to basolateral, 3 µM (1.1 µg/mL), 1 h, read-out: Papp A→B) of 77.6 ×10⁻⁶ cm/s.
